# From PubChem BioAssay (NCI)
#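 96-well plates; 48 h exposure; 5 concentrations. Endpoints by linear interpolation between flanking doses. Not reached: highest tested concentration assigned. GI50 = concentration required for 50% inhibition of growth. TGI denotes the concentration required for complete inhibition of growth.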
# Assays:
# Assay in all cases: inhibition of tumour cell growth, NCI panel, 48 h
# [1] = test system: 786-0 renal
# [2] = test system: A498 renal
# [3] = test system: A549 NSCLC
# [4] = test system: ACHN renal
# [5] = test system: BT-549 breast
# [6] = test system: CAKI-1 renal
# [7] = test system: CCRF-CEM leukemia
# [8] = test system: COLO 205 colon
# [9] = test system: DU-145 prostate
# [10] = test system: EKVX NSCLC
# [11] = test system: HCC-2998 colon
# [12] = test system: HCT-116 colon
# [13] = test system: HCT-15 colon
# [14] = test system: HL-60(TB) leukemia
# [15] = test system: HOP-62 NSCLC
# [16] = test system: HOP-92 NSCLC
# [17] = test system: HS 578T breast
# [18] = test system: HT29 colon
# [19] = test system: IGROV1 ovarian
# [20] = test system: K-562 leukemia
# [21] = test system: KM12 colon
# [22] = test system: LOX IMVI melanoma
# [23] = test system: M14 melanoma
# [24] = test system: MALME-3M melanoma
# [25] = test system: MCF7 breast
# [26] = test system: MDA-MB-231 breast
# [27] = test system: MDA-MB-435
# [28] = test system: MOLT-4 leukemia
# [29] = test system: NCI-H226 lung
# [30] = test system: NCI-H23 lung
# [31] = test system: NCI-H460 lung
# [32] = test system: NCI-H522 lung
# [33] = test system: NCI/ADR-RES ovarian
# [34] = test system: OVCAR-3 ovarian
# [35] = test system: OVCAR-4 ovarian
# [36] = test system: OVCAR-5 ovarian
# [37] = test system: OVCAR-8 ovarian
# [38] = test system: PC-3 prostate
# [39] = test system: RPMI-8226 leukemia
# [40] = test system: RXF 393 renal
# [41] = test system: SF-268 CNS
# [42] = test system: SF-295 CNS
# [43] = test system: SF-539 CNS
# [44] = test system: SK-MEL-2 melanoma
# [45] = test system: SK-MEL-28 melanoma
# [46] = test system: SK-MEL-5 melanoma
# [47] = test system: SK-OV-3 ovarian
# [48] = test system: SN12C renal
# [49] = test system: SNB-19 CNS
# [50] = test system: SNB-75 CNS
# [51] = test system: SR leukemia
# [52] = test system: SW-620 colon
# [53] = test system: T-47D breast
# [54] = test system: TK-10 renal
# [55] = test system: U251 CNS
# [56] = test system: UACC-257 melanoma
# [57] = test system: UACC-62 melanoma
# [58] = test system: UO-31 renal
compound,measurement,setting,value
COc1cc(C)c(NC(=O)CN(C)C)cc1Nc1nc(Nc2cccc(F)c2C(N)=O)c2cc[nH]c2n1,GI50,[1],4.15 µM
same,TGI,[1],8.76 µM
same,GI50,[2],1.25 µM
same,TGI,[2],6.02 µM
same,GI50,[3],0.945 µM
same,TGI,[3],4.82 µM
same,GI50,[4],3.81 µM
same,TGI,[4],7.35 µM
same,GI50,[5],4.35 µM
same,TGI,[5],18.9 µM
same,GI50,[6],3.68 µM
same,TGI,[6],9.95 µM
same,GI50,[7],0.403 µM
same,TGI,[7],4.88 µM
same,GI50,[8],0.014 µM
same,TGI,[8],0.552 µM
same,GI50,[9],0.826 µM
same,TGI,[9],3.7 µM
same,GI50,[10],0.937 µM
same,TGI,[10],12.5 µM
same,GI50,[11],0.621 µM
same,TGI,[11],5.09 µM
same,GI50,[12],0.686 µM
same,TGI,[12],4.31 µM
same,GI50,[13],1.98 µM
same,TGI,[13],6.9 µM
same,GI50,[14],0.0205 µM
same,TGI,[14],0.875 µM
same,GI50,[15],1.24 µM
same,TGI,[15],5.54 µM
same,GI50,[16],0.0124 µM
same,TGI,[16],2.66 µM
same,GI50,[17],3.08 µM
same,TGI,[17],10.2 µM
same,GI50,[18],0.00981 µM
same,TGI,[18],0.725 µM
same,GI50,[19],1.91 µM
same,TGI,[19],5.81 µM
same,GI50,[20],1.41 µM
same,TGI,[20],6.38 µM
same,GI50,[21],0.524 µM
same,TGI,[21],1.92 µM
same,GI50,[22],1.45 µM
same,TGI,[22],6.1 µM
same,GI50,[23],1.1 µM
same,TGI,[23],5.98 µM
same,GI50,[24],1.91 µM
same,TGI,[24],7.47 µM
same,GI50,[25],0.0138 µM
same,TGI,[25],2.9 µM
same,GI50,[26],2.66 µM
same,TGI,[26],6.72 µM
same,GI50,[27],0.161 µM
same,TGI,[27],2.56 µM
same,GI50,[28],1.09 µM
same,TGI,[28],25 µM
same,GI50,[29],2.6 µM
same,TGI,[29],7.24 µM
same,GI50,[30],0.586 µM
same,TGI,[30],6.02 µM
same,GI50,[31],0.604 µM
same,TGI,[31],4.49 µM
same,GI50,[32],0.623 µM
same,TGI,[32],3.69 µM
same,GI50,[33],2.64 µM
same,TGI,[33],7.59 µM
same,GI50,[34],0.682 µM
same,TGI,[34],1.86 µM
same,GI50,[35],2.92 µM
same,TGI,[35],7.43 µM
same,GI50,[36],0.0336 µM
same,TGI,[36],3.63 µM
same,GI50,[37],1.64 µM
same,TGI,[37],6.32 µM
same,GI50,[38],2.21 µM
same,TGI,[38],7.56 µM
same,GI50,[39],2.23 µM
same,TGI,[39],7.99 µM
same,GI50,[40],1.42 µM
same,TGI,[40],5.9 µM
same,GI50,[41],1.27 µM
same,TGI,[41],5.47 µM
same,GI50,[42],2.13 µM
same,TGI,[42],11.1 µM
same,GI50,[43],3.05 µM
same,TGI,[43],7.07 µM
same,GI50,[44],0.479 µM
same,TGI,[44],3.32 µM
same,GI50,[45],2.68 µM
same,TGI,[45],9.62 µM
same,GI50,[46],0.69 µM
same,TGI,[46],4.36 µM
same,GI50,[47],2.67 µM
same,TGI,[47],6.29 µM
same,GI50,[48],3.86 µM
same,TGI,[48],8.23 µM
same,GI50,[49],4.02 µM
same,TGI,[49],16 µM
same,GI50,[50],3.37 µM
same,TGI,[50],6.92 µM
same,GI50,[51],0.00977 µM
same,TGI,[51],2.89 µM
same,GI50,[52],0.168 µM
same,TGI,[52],3.49 µM
same,GI50,[53],3.81 µM
same,TGI,[53],8.38 µM
same,GI50,[54],1.93 µM
same,TGI,[54],5.55 µM
same,GI50,[55],3.12 µM
same,TGI,[55],6.86 µM
same,GI50,[56],0.0555 µM
same,TGI,[56],4.05 µM
same,GI50,[57],1.16 µM
same,TGI,[57],7.89 µM
same,GI50,[58],3.33 µM
same,TGI,[58],7.08 µM
